Measurements from patent publication US8691820B2, “CDK inhibitors” (Curis, Inc., priority 2008, dated 2014).

Experiments:
CDK2/cyclinA = target: T1, CDK2/cyclinA (Homo sapiens, UniProt P24941); assay: CDK2 kinase assay (33P-ATP, Histone H1 substrate); format: biochemical; settings: 1 μM ATP, 5 μM Histon H1, 2 hours at room temperature
T1 construct: C-terminal 6His-tagged human full length cdk2 (MW=35 kDa); 6His (C); made in house; host or cells: Sf21 insect cells (baculovirus)
Text: CDK2/cyclinA (Accession number for CDK2; EMBL M68520, for cyclin A; EMBL X51688): C-terminal 6His-tagged human full length cdk2 (MW=35 kDa), and N-terminal GST-tagged human full length cyclin A (MW=75 kDa) were expressed individually with baculovirus system in Sf21 insect cells. Recombinant cdk2 protein was purified with Ni2+/NTA agarose and then activated using CAK and repurified by Q Sepharose and Ni2+/NTA agarose. Recombinant cyclin A was purified using glutathione-agarose. They were then mixed in vitro to form protein complex. Recombinant protein complex was measured to be 67% in purity with SDS-PAGE and Coomassie blue staining. Specific activity of purified enzyme was measured to be 158 U/mg, where one unit of cdk2/cyclinA activity is defined as 1 nmol phosphate incorporated into 0.1 mg/ml histone H1 per minute at 30° C. with a final ATP concentration of […]. Enzyme was stored at a concentration of 0.1 mg/ml in 50 mM Tris/HCl pH7.5, 150 mM NaCl, 0.1 mM EGTA, 0.03% Brij-35, 270 mM sucrose, 1 mM benzamidine, 0.2 mM PMSF, 0.1% 2-mercaptoethanol. Frozen solution.
Histon H1 (Substrate for CDK2): Histone H1 (Sigma cat#H4524), was purified as a lysine rich fraction from calf thymus with 93% purity (MW=21.5 kDa). Purified protein was stored at a concentration of 20 mg/ml=930 μM in distilled water.
[…] (0.5 nmol) and 5 μM Histon H1 were mixed in the reaction buffer (20 mM HEPES (pH 7.5), 10 mM MgCl2, 1 mM EGTA, 0.02% Brij 35, 0.02 mg/ml BSA, 0.1 mM Na3VO4, 2 mM DTT) with final concentration of 1 μM ATP and 1% DMSO. The reaction was incubated for 2 hours at room temperature and conversion rate of ATP is about 4.5%. An equal volume of 25% TCA was added to stop the reaction and precipitate the labeled peptides. Precipitated proteins were trapped onto glass fiber B filterplates and excess […] p33 ATP was washed off. The plates were allowed to air-dry prior to the addition of 30 uL/well of Packard Microscint 20. The amount of incorporated isotope was measured using a Perkin Elmer TopCount plate reader. Different concentrations of compounds were added to reaction to assess the activity of compounds to inhibit […]. IC50 was calculated using Prism software with sigmoidal dose-response curve fitting.
The following TABLE B lists compounds representative of the invention and their activity in the CDK2 assay. In this assay, the following grading was used: I≧10 μM, 10 μM>II>1 μM, 1 μM>III>0.1 μM, and IV≦0.1 μM for IC50.

CDK1 = CDK1 (Homo sapiens, UniProt P06493); assay: CDK1 kinase inhibition (Table B); format: biochemical
CDK1, sequence (P06493 whole entry): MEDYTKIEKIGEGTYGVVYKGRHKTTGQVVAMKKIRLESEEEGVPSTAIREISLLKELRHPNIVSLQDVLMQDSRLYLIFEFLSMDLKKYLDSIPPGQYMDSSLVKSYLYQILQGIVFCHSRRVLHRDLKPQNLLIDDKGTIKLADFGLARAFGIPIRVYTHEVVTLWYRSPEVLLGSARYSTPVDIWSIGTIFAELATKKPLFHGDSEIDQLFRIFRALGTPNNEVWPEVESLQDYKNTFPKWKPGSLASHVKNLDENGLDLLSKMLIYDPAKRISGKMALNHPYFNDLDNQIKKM
CDK1, sequence (P14635 whole entry partner): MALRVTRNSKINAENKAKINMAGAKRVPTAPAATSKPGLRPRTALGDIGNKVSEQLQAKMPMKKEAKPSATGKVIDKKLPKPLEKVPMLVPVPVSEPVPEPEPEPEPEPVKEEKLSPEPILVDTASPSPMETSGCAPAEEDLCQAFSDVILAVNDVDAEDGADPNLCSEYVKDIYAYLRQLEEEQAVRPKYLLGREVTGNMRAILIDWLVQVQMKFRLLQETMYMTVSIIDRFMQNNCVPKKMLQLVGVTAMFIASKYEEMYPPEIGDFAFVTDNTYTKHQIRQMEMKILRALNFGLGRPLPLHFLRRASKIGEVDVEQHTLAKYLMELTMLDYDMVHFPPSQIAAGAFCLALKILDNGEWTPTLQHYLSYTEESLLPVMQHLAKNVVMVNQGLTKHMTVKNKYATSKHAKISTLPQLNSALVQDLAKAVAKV

CDK3 = CDK3 (Homo sapiens, UniProt Q00526); assay: CDK3 kinase inhibition (Table B); format: biochemical
CDK3, sequence (Q00526 whole entry): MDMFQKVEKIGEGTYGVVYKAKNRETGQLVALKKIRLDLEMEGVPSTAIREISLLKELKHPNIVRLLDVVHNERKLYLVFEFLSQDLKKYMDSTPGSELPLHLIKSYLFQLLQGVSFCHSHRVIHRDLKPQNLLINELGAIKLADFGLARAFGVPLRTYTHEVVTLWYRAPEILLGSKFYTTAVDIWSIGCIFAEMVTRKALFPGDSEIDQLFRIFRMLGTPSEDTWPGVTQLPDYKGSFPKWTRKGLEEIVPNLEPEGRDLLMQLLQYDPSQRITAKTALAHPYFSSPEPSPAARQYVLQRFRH
CDK3, sequence (P24864 whole entry partner): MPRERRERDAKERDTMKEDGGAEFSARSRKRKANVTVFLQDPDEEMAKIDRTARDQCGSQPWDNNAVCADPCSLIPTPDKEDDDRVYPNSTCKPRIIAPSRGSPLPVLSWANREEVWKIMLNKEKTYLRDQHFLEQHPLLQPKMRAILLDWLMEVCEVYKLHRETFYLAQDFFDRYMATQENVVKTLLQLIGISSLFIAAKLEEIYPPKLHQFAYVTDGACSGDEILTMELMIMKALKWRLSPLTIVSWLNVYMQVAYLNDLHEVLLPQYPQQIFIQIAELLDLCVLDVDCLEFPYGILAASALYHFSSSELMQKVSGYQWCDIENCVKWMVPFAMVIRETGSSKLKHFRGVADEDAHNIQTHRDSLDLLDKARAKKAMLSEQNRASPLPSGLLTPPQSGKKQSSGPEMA

CDK4 = CDK4 (Homo sapiens, UniProt P11802); assay: CDK4 kinase inhibition (Table B); format: biochemical
CDK4, sequence (P11802 whole entry): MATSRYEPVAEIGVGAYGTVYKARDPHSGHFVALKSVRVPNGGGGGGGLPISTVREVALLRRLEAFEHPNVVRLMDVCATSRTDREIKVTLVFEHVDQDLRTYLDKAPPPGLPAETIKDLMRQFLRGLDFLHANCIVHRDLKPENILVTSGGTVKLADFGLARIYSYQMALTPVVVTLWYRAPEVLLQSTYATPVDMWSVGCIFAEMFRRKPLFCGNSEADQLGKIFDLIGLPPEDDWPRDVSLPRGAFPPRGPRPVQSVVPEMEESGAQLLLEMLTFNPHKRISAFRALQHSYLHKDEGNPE
CDK4, sequence (P24385 whole entry partner): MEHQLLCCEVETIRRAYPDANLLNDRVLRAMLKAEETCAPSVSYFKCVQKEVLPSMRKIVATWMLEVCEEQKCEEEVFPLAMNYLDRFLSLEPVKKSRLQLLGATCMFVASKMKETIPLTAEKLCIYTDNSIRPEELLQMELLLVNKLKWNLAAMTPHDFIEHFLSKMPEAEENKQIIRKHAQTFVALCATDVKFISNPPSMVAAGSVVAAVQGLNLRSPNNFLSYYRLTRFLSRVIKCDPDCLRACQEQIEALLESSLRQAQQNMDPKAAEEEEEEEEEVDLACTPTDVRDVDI

CDK9 = CDK9 (Homo sapiens, UniProt P50750); assay: CDK9 kinase inhibition (Table B); format: biochemical
CDK9, sequence (P50750 whole entry): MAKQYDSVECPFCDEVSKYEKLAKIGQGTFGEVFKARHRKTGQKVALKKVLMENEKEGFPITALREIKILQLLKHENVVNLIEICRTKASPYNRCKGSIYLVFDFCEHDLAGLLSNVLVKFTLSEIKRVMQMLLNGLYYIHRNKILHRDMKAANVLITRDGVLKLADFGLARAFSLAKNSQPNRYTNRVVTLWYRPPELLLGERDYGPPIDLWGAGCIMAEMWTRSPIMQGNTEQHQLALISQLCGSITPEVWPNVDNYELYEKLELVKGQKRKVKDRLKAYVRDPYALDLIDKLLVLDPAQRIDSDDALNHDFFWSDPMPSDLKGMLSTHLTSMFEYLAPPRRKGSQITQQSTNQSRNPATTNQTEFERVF
CDK9, sequence (O60563 whole entry partner): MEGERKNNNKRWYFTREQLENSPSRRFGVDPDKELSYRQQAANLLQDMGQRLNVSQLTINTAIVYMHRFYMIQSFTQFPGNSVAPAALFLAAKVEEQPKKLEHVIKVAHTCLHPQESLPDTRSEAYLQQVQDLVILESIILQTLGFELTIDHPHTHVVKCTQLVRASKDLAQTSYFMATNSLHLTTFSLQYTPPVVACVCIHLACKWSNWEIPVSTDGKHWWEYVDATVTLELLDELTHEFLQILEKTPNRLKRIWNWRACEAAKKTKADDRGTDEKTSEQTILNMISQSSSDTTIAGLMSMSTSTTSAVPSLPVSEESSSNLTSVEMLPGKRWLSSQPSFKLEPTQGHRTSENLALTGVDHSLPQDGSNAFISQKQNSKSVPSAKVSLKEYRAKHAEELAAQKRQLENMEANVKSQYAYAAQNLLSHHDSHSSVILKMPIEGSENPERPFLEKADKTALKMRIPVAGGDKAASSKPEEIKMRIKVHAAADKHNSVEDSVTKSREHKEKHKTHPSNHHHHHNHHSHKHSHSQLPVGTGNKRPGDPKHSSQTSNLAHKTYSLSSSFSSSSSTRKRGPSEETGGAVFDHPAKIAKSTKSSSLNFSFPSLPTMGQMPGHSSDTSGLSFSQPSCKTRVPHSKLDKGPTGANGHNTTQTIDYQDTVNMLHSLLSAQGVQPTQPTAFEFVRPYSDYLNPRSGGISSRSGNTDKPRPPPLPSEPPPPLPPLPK

| IC50 (CDK2/cyclinA) [nM] | IC50 (CDK1) [nM] | IC50 (CDK3) [nM] | IC50 (CDK4) [nM] | IC50 (CDK9) [nM] | melting point [°C] | Structure (SMILES) |
| --- | --- | --- | --- | --- | --- | --- |
| ≤ 100 | ≤ 100 | ≤ 100 | 100 to 1000 | ≤ 100 | – | CC(C)N(O)C(=O)CCCCCCC(=O)Nc1ncc(SCc2ncc(C(C)(C)C)o2)s1 [Compound 5, N^1-(5-((5-tert-butyloxazol-2-yl)methylthio)thiazol-2-yl)-N^8-hydroxy-N^8-isopropyloctanediamide] |
| ≤ 100 | ≤ 100 | ≤ 100 | 100 to 1000 | ≤ 100 | – | CC(C)(C)c1cnc(CSc2cnc(NC(=O)CCCCCCC(=O)Nc3ccccc3N)s2)o1 [Compound 18, N^1-(2-aminophenyl)-N^8-(5-((5-tert-butyloxazol-2-yl)methylthio)thiazol-2-yl)octanediamide] |
| ≤ 100 | – | – | – | – | 77 to 82 | CC(C)(C)c1cnc(CSc2cnc(NC(=O)CCCCCCC(=O)Nc3cc(C(F)(F)F)ccc3N)s2)o1 [Compound 24, N^1-(2-amino-5-(trifluoromethyl)phenyl)-N^8-(5-((5-tert-butyloxazol-2-yl)methylthio)thiazol-2-yl)octanediamide] |
| ≤ 100 | – | – | – | – | 114 to 116 | CC(C)(C)c1cnc(CSc2cnc(NC(=O)CCCCCCC(=O)Nc3ccc(C(F)(F)F)cc3N)s2)o1 [Compound 25, N^1-(2-amino-4-(trifluoromethyl)phenyl)-N^8-(5-((5-tert-butyloxazol-2-yl)methylthio)thiazol-2-yl)octanediamide] |
| ≤ 100 | – | – | – | – | – | CC(C)(C)c1cnc(CSc2cnc(NC(=O)Cc3ccc(OCCCC(=O)Nc4ccc(F)cc4N)cc3)s2)o1 [Compound 59, N-(2-amino-4-fluorophenyl)-4-(4-(2-(5-((5-tert-butyloxazol-2-yl)methylthio)thiazol-2-ylamino)-2-oxoethyl)phenoxy)butanamide] |
| ≤ 100 | – | – | – | – | – | CC(C)(C)c1cnc(CSc2cnc(NC(=O)Cc3ccc(OCCCC(=O)Nc4cc(F)ccc4N)cc3)s2)o1 [Compound 60, N-(2-amino-5-fluorophenyl)-4-(4-(2-(5-((5-tert-butyloxazol-2-yl)methylthio)thiazol-2-ylamino)-2-oxoethyl)phenoxy)butanamide] |
| ≤ 100 | – | – | – | – | – | CC(C)(C)c1cnc(CSc2cnc(NC(=O)Cc3ccc(OCCCC(=O)Nc4ccccc4)cc3)s2)o1 [Compound 61, 4-(4-(2-(5-((5-tert-butyloxazol-2-yl)methylthio)thiazol-2-ylamino)-2-oxoethyl)phenoxy)-N-phenylbutanamide] |
| ≤ 100 | – | – | – | – | – | CC(C)(C)c1cnc(CSc2cnc(NC(=O)Cc3ccc(OCCCC(=O)Nc4ccncc4)cc3)s2)o1 [Compound 62, 4-(4-(2-(5-((5-tert-butyloxazol-2-yl)methylthio)thiazol-2-ylamino)-2-oxoethyl)phenoxy)-N-(pyridin-4-yl)butanamide] |
| ≤ 100 | – | – | – | – | – | CC(C)(C)c1cnc(CSc2cnc(NC(=O)Cc3ccc(OCCCC(=O)Nc4cccnc4)cc3)s2)o1 [Compound 63, 4-(4-(2-(5-((5-tert-butyloxazol-2-yl)methylthio)thiazol-2-ylamino)-2-oxoethyl)phenoxy)-N-(pyridin-3-yl)butanamide] |
| ≤ 100 | – | – | – | – | 126 to 129 | CC(C)(C)c1cnc(CSc2cnc(NC(=O)Cc3ccc(OCCCC(=O)Nc4ccccn4)cc3)s2)o1 [Compound 64, 4-(4-(2-(5-((5-tert-butyloxazol-2-yl)methylthio)thiazol-2-ylamino)-2-oxoethyl)phenoxy)-N-(pyridin-2-yl)butanamide] |
